Reference: ChEMBL document CHEMBL4507274 (2021)

Assays:
[1] = test system: Epidermal growth factor receptor (Homo sapiens), P00533 [UNDEFINED MUTATION]; conditions: Compound concentration 100.0 nM
[2] = molecular target: 5-hydroxytryptamine receptor 2A (Homo sapiens) (UniProt P28223); conditions: Compound concentration 10.0 uM
[3] = molecular target: Muscarinic acetylcholine receptor M4 (Homo sapiens) (UniProt P08173); conditions: Compound concentration 10.0 uM
[4] = molecular target: Calcium/calmodulin-dependent protein kinase type II subunit gamma (Rattus norvegicus) (UniProt P11730); assay: CaMKII (r) Upstate kinase activity assay; conditions: Compound concentration 10.0 uM
Calcium/calmodulin-dependent protein kinase type II subunit gamma (Rattus norvegicus), sequence (P11730 whole entry): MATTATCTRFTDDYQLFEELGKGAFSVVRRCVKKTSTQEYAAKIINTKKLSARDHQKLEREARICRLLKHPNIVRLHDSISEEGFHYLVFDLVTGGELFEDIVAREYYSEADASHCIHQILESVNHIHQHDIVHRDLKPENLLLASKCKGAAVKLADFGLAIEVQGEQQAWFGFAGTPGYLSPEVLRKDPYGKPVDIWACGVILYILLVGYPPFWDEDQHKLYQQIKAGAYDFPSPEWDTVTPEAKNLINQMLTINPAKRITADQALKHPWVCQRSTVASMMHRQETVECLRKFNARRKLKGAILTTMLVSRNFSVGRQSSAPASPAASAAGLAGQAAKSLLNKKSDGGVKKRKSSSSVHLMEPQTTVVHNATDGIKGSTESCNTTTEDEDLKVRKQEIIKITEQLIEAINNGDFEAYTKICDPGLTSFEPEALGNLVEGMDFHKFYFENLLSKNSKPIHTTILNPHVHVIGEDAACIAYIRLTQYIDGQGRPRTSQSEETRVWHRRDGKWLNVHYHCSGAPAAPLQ

[5] = molecular target: RAF proto-oncogene serine/threonine-protein kinase (Homo sapiens) (UniProt P04049); assay: c-RAF (h) Upstate kinase activity assay; conditions: Compound concentration 10.0 uM
RAF proto-oncogene serine/threonine-protein kinase (Homo sapiens), sequence (P04049 whole entry): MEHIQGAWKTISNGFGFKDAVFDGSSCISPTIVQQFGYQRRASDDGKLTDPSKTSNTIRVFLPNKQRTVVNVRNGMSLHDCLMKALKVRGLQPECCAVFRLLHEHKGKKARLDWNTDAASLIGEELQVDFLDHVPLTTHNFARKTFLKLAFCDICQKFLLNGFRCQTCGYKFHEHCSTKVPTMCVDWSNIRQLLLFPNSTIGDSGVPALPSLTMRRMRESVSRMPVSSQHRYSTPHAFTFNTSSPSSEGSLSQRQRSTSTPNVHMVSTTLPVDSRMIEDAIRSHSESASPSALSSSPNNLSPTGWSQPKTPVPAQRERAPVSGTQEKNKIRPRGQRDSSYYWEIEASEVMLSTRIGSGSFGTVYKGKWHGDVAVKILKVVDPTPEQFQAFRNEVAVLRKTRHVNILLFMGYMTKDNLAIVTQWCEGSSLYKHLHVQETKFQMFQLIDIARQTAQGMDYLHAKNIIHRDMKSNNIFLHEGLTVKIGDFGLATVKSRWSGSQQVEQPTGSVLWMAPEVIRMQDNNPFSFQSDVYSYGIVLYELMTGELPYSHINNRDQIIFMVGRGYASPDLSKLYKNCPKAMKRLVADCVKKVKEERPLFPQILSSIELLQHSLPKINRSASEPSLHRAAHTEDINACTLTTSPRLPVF

[6] = molecular target: Mitogen-activated protein kinase 8 (Homo sapiens) (UniProt P45983); assay: JNK1alpha1 (h) Upstate kinase activity assay; conditions: Compound concentration 10.0 uM
Mitogen-activated protein kinase 8 (Homo sapiens), sequence (P45983 whole entry): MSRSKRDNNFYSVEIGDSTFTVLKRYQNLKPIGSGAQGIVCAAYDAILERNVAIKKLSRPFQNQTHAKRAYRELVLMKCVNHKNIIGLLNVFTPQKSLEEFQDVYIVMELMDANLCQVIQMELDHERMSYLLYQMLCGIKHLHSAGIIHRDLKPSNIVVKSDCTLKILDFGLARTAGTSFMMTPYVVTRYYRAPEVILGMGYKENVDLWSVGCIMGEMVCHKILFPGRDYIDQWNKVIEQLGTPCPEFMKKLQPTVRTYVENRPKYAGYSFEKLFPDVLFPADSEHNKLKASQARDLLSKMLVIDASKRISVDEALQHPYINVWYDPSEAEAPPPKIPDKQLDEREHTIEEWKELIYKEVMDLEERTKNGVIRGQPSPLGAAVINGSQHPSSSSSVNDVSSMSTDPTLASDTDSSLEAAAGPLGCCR

[7] = molecular target: Mitogen-activated protein kinase 1 (Mus musculus) (UniProt P63085); assay: MAPK2 (m) Upstate kinase activity assay; conditions: Compound concentration 10.0 uM
Mitogen-activated protein kinase 1 (Mus musculus), sequence (P63085 whole entry): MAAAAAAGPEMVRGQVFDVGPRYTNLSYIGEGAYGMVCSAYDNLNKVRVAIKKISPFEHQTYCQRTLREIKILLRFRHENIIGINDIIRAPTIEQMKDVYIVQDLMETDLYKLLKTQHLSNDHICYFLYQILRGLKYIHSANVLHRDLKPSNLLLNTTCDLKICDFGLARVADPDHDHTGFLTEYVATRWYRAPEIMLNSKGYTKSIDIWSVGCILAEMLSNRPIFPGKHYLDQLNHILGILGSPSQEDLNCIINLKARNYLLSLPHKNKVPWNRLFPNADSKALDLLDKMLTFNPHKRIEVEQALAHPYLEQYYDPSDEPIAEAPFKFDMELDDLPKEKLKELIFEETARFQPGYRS

[8] = molecular target: Protein kinase C beta type (Homo sapiens) (UniProt P05771); assay: PKCBII(h) Upstate kinase activity assay; conditions: Compound concentration 10.0 uM
Protein kinase C beta type (Homo sapiens), sequence (P05771 2-671 limits assumed): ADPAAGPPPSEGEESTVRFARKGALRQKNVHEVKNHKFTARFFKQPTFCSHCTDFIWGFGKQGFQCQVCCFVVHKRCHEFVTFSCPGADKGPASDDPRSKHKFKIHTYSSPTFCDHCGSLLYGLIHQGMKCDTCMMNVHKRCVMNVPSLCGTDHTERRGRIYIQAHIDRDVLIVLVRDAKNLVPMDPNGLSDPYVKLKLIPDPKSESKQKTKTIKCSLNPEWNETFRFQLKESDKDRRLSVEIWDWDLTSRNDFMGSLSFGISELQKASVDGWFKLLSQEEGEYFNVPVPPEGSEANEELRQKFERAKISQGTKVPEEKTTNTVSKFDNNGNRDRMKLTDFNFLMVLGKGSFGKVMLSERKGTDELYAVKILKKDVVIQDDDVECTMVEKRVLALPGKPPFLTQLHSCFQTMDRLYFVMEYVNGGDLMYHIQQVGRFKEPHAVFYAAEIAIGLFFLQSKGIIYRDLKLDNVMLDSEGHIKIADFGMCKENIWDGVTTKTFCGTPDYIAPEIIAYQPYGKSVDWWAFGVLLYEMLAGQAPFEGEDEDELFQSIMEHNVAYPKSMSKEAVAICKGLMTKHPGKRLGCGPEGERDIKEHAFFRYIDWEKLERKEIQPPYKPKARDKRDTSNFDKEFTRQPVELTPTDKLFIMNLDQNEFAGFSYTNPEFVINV

[9] = molecular target: T1, Serine/threonine-protein kinase D2 (Homo sapiens) (UniProt Q9BZL6); assay: PKD2 (h) Upstate kinase activity assay; conditions: Compound concentration 10.0 uM
T1 sequence (whole entry): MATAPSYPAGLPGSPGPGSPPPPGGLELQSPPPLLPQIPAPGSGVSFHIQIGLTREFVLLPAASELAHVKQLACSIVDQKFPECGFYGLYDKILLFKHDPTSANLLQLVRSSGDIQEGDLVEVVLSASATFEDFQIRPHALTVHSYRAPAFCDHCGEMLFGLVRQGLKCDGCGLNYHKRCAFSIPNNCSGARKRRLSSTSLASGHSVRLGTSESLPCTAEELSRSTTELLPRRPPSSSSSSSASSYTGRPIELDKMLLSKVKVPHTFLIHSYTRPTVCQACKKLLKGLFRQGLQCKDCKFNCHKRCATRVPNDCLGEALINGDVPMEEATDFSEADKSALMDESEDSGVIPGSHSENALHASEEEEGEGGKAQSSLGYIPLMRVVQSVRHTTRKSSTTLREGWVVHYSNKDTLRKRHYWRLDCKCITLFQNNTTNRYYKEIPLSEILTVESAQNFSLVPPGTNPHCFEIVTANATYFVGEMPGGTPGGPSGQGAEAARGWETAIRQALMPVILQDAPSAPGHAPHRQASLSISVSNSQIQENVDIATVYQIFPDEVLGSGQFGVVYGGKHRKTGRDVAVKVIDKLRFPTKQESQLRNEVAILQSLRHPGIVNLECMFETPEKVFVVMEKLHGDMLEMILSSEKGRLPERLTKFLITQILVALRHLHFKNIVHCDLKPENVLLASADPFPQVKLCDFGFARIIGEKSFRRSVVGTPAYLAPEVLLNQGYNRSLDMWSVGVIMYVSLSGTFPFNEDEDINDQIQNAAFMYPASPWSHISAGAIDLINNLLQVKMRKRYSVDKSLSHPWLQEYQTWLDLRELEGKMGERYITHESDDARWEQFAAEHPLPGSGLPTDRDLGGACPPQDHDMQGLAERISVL

[10] = molecular target: Phosphatidylinositol 4,5-bisphosphate 3-kinase catalytic subunit alpha isoform (Homo sapiens) (UniProt P42336); assay: PIK3 (h) Upstate kinase activity assay; conditions: Compound concentration 10.0 uM
Phosphatidylinositol 4,5-bisphosphate 3-kinase catalytic subunit alpha isoform (Homo sapiens), sequence (P42336 whole entry, canonical isoform): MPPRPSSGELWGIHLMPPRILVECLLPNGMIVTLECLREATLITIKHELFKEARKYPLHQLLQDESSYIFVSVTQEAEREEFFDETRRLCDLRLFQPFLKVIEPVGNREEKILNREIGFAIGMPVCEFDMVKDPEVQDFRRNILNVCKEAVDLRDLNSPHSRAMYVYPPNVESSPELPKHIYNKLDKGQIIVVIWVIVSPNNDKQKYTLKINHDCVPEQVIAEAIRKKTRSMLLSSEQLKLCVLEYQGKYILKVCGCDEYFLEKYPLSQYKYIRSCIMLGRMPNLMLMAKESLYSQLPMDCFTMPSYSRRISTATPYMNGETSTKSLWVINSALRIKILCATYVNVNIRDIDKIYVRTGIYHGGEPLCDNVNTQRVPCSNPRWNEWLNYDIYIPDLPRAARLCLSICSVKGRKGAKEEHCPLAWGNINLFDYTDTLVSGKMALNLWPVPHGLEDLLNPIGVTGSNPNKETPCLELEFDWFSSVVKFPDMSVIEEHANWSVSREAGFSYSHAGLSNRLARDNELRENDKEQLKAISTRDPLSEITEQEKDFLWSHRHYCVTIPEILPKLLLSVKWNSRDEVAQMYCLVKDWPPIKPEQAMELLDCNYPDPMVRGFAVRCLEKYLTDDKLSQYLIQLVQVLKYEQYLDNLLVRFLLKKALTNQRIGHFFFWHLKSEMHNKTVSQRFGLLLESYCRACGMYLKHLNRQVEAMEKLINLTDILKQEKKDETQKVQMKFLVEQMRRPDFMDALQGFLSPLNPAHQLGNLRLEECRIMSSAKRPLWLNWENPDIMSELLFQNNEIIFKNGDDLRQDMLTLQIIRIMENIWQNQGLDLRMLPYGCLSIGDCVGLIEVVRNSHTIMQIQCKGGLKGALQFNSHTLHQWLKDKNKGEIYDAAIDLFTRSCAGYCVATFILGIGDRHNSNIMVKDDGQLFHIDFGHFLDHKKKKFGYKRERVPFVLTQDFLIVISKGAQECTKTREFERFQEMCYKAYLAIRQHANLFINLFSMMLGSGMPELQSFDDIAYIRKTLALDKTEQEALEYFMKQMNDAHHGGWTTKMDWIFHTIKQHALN

[11] = molecular target: T2, Mitogen-activated protein kinase 13 (Homo sapiens) (UniProt O15264); assay: SAPK4 (h) Upstate kinase activity assay; conditions: Compound concentration 10.0 uM
T2 sequence (whole entry): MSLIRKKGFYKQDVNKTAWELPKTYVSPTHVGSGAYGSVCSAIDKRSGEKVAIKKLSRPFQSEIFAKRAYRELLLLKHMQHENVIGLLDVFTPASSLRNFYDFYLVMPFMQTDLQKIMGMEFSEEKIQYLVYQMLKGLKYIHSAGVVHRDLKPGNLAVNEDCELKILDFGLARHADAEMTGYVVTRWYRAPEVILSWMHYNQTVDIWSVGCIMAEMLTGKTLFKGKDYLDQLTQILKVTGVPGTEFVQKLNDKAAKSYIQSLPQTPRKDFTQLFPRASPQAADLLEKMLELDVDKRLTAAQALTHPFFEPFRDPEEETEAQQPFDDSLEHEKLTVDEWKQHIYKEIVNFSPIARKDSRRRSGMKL

[12] = molecular target: T3, Tyrosine-protein kinase ZAP-70 (Homo sapiens) (UniProt P43403); assay: ZAP-70 (h) Upstate kinase activity assay; conditions: Compound concentration 10.0 uM
T3 sequence (whole entry): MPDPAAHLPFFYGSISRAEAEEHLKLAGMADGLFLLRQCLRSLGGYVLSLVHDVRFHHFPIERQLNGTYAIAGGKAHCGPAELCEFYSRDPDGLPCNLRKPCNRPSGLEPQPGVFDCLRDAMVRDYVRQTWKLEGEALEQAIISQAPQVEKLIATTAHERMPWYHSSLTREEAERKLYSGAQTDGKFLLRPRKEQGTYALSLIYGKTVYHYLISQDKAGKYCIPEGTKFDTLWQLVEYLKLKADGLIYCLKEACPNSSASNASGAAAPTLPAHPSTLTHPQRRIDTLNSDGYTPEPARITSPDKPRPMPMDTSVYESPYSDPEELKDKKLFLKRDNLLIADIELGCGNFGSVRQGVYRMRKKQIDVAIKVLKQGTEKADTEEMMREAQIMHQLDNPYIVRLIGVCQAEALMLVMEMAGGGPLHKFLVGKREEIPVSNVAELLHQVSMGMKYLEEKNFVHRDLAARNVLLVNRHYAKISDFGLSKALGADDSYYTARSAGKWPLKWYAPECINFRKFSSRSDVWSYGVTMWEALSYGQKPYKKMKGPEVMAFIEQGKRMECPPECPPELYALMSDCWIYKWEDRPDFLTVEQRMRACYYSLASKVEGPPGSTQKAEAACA

HC-4 = assay: Liver HC-4 cell line MDS Pharma Services Proliferation Assay; type: functional, cell-based, Homo sapiens
[13] = Lung NCI-1-1460 cell line MDS Pharma Services Proliferation Assay; type: functional, cell-based, Homo sapiens
[14] = test system: KATO III stomach cancer cell line; assay: Stomach KATO III cell line MDS Pharma Services Proliferation Assay; type: functional, cell-based, Homo sapiens
[15] = molecular target: High affinity nerve growth factor receptor (Homo sapiens) (UniProt P04629); conditions: Compound concentration 10.0 uM
High affinity nerve growth factor receptor (Homo sapiens), sequence (P04629 33-796 limits assumed): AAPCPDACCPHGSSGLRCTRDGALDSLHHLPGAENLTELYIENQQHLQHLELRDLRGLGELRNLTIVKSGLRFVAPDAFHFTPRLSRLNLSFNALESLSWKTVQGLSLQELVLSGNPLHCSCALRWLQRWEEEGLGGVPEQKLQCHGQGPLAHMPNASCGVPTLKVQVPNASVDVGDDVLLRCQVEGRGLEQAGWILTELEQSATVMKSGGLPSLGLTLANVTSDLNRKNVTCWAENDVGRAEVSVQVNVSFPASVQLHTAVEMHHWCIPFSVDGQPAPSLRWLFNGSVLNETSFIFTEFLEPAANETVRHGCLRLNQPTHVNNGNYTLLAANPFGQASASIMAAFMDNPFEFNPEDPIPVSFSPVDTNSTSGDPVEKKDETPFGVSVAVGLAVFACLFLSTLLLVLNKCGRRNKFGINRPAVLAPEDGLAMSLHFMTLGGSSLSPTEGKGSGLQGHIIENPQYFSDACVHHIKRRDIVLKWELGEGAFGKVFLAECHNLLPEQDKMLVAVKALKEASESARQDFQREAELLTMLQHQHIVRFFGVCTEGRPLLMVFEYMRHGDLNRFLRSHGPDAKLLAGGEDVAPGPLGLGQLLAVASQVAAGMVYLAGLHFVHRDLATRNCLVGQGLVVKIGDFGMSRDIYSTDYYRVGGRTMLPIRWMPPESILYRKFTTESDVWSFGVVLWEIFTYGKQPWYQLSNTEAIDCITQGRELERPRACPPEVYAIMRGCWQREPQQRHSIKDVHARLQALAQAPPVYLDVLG

5-hydroxytryptamine receptor 2A (Homo sapiens), sequence (P28223 whole entry): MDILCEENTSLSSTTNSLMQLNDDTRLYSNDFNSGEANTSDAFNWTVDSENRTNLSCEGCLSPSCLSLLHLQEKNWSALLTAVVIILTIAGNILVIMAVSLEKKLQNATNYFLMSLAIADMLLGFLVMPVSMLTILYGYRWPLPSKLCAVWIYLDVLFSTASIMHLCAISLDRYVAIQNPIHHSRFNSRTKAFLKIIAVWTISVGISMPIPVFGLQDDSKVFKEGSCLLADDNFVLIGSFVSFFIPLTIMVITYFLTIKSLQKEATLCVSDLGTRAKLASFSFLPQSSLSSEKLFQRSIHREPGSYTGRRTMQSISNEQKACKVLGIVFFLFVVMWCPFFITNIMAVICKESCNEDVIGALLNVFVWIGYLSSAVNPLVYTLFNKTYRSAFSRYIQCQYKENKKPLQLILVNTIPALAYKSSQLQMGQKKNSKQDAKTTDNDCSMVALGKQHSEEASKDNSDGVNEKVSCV

Cn1cc(Cl)c2c(Oc3c(F)cc(Nc4cc(Cl)nc(N)n4)cc3F)ccnc21 [BAY-4900]
residual activity [1]: 73% | inhibition [2]: -1.36% | inhibition [3]: -3.76%

Cc1c[nH]c2nccc(Oc3c(F)cc(Nc4cc(Cl)nc(N)n4)cc3F)c12 [BAY-549]
inhibition [4]: 7% | inhibition [5]: 76% | inhibition [6]: 22% | inhibition [7]: 21% | inhibition [8]: 9% | inhibition [9]: 28% | inhibition [10]: -3% | inhibition [11]: 16% | inhibition [12]: -8% | IC50 (HC-4; Homo sapiens, HC-4): 2.1 µM | TGI (HC-4; Homo sapiens, HC-4): 13 µM | CC50 (HC-4; Homo sapiens, HC-4, read-out: LC50 (the source's name)): 82 µM | Mean % growth (n = 2) for 0.1 µM probe concentration (HC-4; ± SEM 1 % growth): 94% | Mean % growth (n = 2) for 0.01 µM probe concentration (HC-4; ± SEM 5 % growth): 102% | Mean % growth (n = 2) for 1.0 µM probe concentration (HC-4; ± SEM 5 % growth): 59% | Mean % growth (n = 2) for 10.0 µM probe concentration (HC-4; ± SEM 8 % growth): 12% | Mean % growth (n = 2) for 100.0 µM probe concentration (HC-4; ± SEM 8 % growth): -56% | TGI ([13]; Homo sapiens, Lung NCI-1-1460): 11 µM | CC50 ([13]; Homo sapiens, Lung NCI-1-1460, read-out: LC50 (the source's name)): > 100 µM | Mean % growth (n = 2) for 0.01 µM probe concentration ([13]; ± SEM 1 % growth): 98% | Mean % growth (n = 2) for 10.0 µM probe concentration ([13]; ± SEM 1 % growth): 2% | Mean % growth (n = 2) for 1.0 µM probe concentration ([13]; ± SEM 2 % growth): 50% | Mean % growth (n = 2) for 0.1 µM probe concentration ([13]; ± SEM 3 % growth): 82% | Mean % growth (n = 2) for 100.0 µM probe concentration ([13]; ± SEM 12 % growth): -45% | IC50 ([14]; Homo sapiens, KATO III): 3.2 µM | TGI ([14]; Homo sapiens, KATO III): > 100 µM | CC50 ([14]; Homo sapiens, KATO III, read-out: LC50 (the source's name)): > 100 µM | Mean % growth (n = 2) for 0.01 µM probe concentration ([14]; ± SEM 7 % growth): 98% | Mean % growth (n = 2) for 10.0 µM probe concentration ([14]; ± SEM 7 % growth): 27% | Mean % growth (n = 2) for 100.0 µM probe concentration ([14]; ± SEM 7 % growth): 19% | Mean % growth (n = 2) for 1.0 µM probe concentration ([14]; ± SEM 8 % growth): 66% | Mean % growth (n = 2) for 0.1 µM probe concentration ([14]; ± SEM 11 % growth): 99% | inhibition [15]: 99%
